Blank lines part the entries; values can stand above or below the compound they belong to. Square brackets hold non-standard residues; d marks the D form. Peptide text beside a SMILES is read from it.
Legend:
[1] = Plasma stability (UPLC-MS); type: in vitro ADME, human; details: human EDTA plasma from four healthy volunteers, 37°C, gentle shaking, UPLC-MS (SIR); for remaining at 72 h, 0.2 mM: peak area vs time 0, read-out: Amount of detectable compound after incubation with human plasma
Description: To assess whether the β32_33 peptide, PMT, PMT-8a and PMT-8b peptide-mimetics are stable in blood, we set up a chromatographic assay able to evaluate compound concentration after incubation in human plasma.
Four different samples from healthy volunteers were used. Blood was drawn by venepuncture in vacutainer containing EDTA as an anticoagulant. Plasma was separated by centrifugation and immediately used for the experiments. Each compound was dissolved in 500 μL plasma at a final concentration of 0.2 mM and split into two aliquots, one of which was immediately analysed to assess the basal compound level (T0); the other was incubated at 37°C under gentle shaking, and the amount of each compound was measured at different time points (i.e., 1.5, 3, 6 and 72 h).
To perform chromatographic analyses, the samples were treated with 3 volumes of acetonitrile containing 1% formic acid and then extracted by using the Ostro™ pass-through sample preparation system to remove proteins and phospholipids. Samples were dried under vacuum, resuspended in 100 μL of 0.1% formic acid containing 5% acetonitrile, and then injected directly onto the chromatographic column.
Chromatographic analyses were performed on a Water Acquity H-Class UPLC system (Waters, Milford, MA, United States), including a quaternary solvent manager (QSM), a sample manager with a flow-through needle system (FTN), a photodiode array detector (PDA) and a single-quadruple mass detector with electrospray ionization source (ACQUITY QDa). Analyses were performed on a reverse phase C18 column (75 mm × 3.2 mm i. d., 2.5 μm particle size). The mobile phase was solvent A, 0.1% formic acid in water, and solvent B, 0.1% formic acid in acetonitrile. The flow rate was 0.5 mL/min, the column temperature was set at 25°C and the elution was performed by linearly increasing the concentration of solvent B up to 70% in 7 min. Mass spectrometric detection was performed in the positive electrospray ionization mode, using nitrogen as the nebulizer gas. Analyses were performed in the Total Ion Current (TIC) mode with a mass range of 100–1200 m/z. The capillary voltage was 0.8 kV, cone voltage 8 V, ion source temperature 120°C and probe temperature 600°C. Quantification was performed by Selected Ion Recording (SIR): at m/z = 917.88, corresponding to the [M+2H]^2+ ion obtained from either β32_33 peptide or PMT; at m/z = 961.42, corresponding to the [M + H] ^+ obtained from PMT-8a; and at m/z = 869.48, corresponding to the [M + H]^+ ion obtained from PMT-8b.

[2] = healthy animals; reached immediately, stable up to 24 h after injection; ref Peng et al., 2018; cited from earlier work
Source text: PMT radiolabelling with ^64Cu allowed us to follow the in vivo distribution of the peptide in the body districts of healthy animals over time.

[3] = system: mutant cybrids; assay: Confocal fluorescence microscopy, co-localization with mitochondria (Mitotracker Red); type: cell-based, human; details: Cy5 constructs 0.25 µM in glucose medium, imaged after 24 h, Mitotracker Red; mean ± SEM of at least five images
Description: Previously established osteosarcoma-derived (143B.TK-) cybrid cell lines from patients, which bear either the m.3243A>G mutation in mt-tRNA^Leu(UUR) or the m.8344A>G mutation in mt-tRNA^Lys and controls ([Perli et al., 2014]; [Perli et al., 2016]; [Perli et al., 2020]) were used.
Constructs made of compounds listed in Table 1, comprising D-peptides linked to the Cy5 fluorophore via maleimide cross-linker, were administered to sub-confluent cybrid cell cultures at 0.25 µM in glucose medium. About 24 h after treatment with each construct, cells were incubated with 200 nM Mitotracker Red FM (LifeTechnologies Italia, Monza, Italy) for 30 min at 37°C.
Subsequently, cells were visualized by confocal microscopy. Images of 800 × 800 px (at 88 nm/px) were acquired at the Olympus iX83 FluoView1200 laser scanning confocal microscope using a 60 × NA1,35 oil objective (Olympus Italia SRL Milano, Italy), zoom 3×, 559 nm, and 635 nm lasers and filter setting for Mitotracker Red and Cy5. The fluorescence images were analysed with the ImageJ software ([Rasband, 2018]) to determine the Pearson’s correlation coefficient.
For a subset of experiments, we evaluated the mt localization of constructs up to 72 h after treatment. PMT and PMT fragments were administered to sub-confluent cybrids at a concentration of 0.25 µM in the glucose medium. At 24-, 48- and 72-h after treatment, cells were incubated with Mitotracker Red and visualized by confocal microscopy. After each confocal imaging section, a fresh glucose medium was added to the cells, which were maintained under standard conditions (a humidified atmosphere of 95% air and 5% CO2 at 37°C).

remaining at 72 h, 0.2 mM ([1]; 72 h): > 90%
Structure (SMILES): CC(C)C[C@@H](NC(=O)[C@@H](Cc1ccccc1)NC(=O)[C@@H](CO)NC(=O)[C@@H](CCCCN)NC(=O)[C@H](N)CCCCN)C(=O)N[C@H](CO)C(=O)N1CCC[C@@H]1C(=O)N[C@H](CCCNC(=N)N)C(N)=O [PMT-8a] (H-[dK][dK][dS][dF][dL][dS][dP][dR]-NH2)

remaining at 72 h, 0.2 mM ([1]; 72 h): > 85%
Structure (SMILES): CC[C@@H](C)[C@@H](NC(=O)[C@@H](CC(C)C)NC(=O)[C@@H](C)NC(=O)[C@H](NC(=O)[C@@H](CCCNC(=N)N)NC(=O)[C@H]1CCCN1C(=O)[C@@H](CO)NC(=O)[C@H](N)CC(C)C)[C@H](C)O)C(N)=O [PMT-8b] (H-[dL][dS][dP][dR][dT][dA][dL][dI]-NH2)

Structure (SMILES): [64Cu] [free ^64Cu]
Radioactivity concentration in different cortical regions [2]: 0.4–0.6 %ID/mL

metabolised at 1.5 h, 0.2 mM ([1]; 1.5 h, peak area vs time 0, read-out: Decrease of amount of compound after incubation with human plasma): 90%
Amount of detectable compound after incubation with human plasma ([1]; 72 h, 0.2 mM, peak area vs time 0): almost undetectable
Structure (SMILES): CC[C@H](C)[C@H](NC(=O)[C@H](CC(C)C)NC(=O)[C@H](C)NC(=O)[C@@H](NC(=O)[C@H](CCCNC(=N)N)NC(=O)[C@@H]1CCCN1C(=O)[C@H](CO)NC(=O)[C@H](CC(C)C)NC(=O)[C@H](Cc1ccccc1)NC(=O)[C@H](CO)NC(=O)[C@H](CCCCN)NC(=O)[C@@H](N)CCCCN)[C@@H](C)O)C(=O)N[C@@H](CC(N)=O)C(=O)N[C@@H](Cc1ccccc1)C(=O)N[C@@H](CC(C)C)C(=O)N[C@H](C(N)=O)C(C)C [β32_33 peptide]
Pearson's correlation coefficient (PCC), mt localization [3]: 0.78 ± 0.06

— PMC12336229, “Peptide-mimetics derived from leucyl-tRNA synthetase are potential agents for the therapy of mt-tRNA related diseases” (Frontiers in Pharmacology, 2025)
